Assay results as given in patent US20080241279A1, “Materials and methods of using calcium for reduction of inflammation” (General Mills, Inc., priority 2004, published 2008).

Settings: about 1200 mg/day calcium, about −500 kcal diet, about 12 weeks; control group about 20%
Description: For example, about eighty (80) obese, but otherwise healthy, men and women (average baseline BMI about 34 kg/m2) with an average CRP of about 6.0 mg/L at baseline could be randomized to about 2 groups for about a 12 week intervention. Both groups would consume reduced calorie diets (about −500 kcal) to promote weight loss, with the calcium intake in “the control group” adjusted to about 500 mg/day and in “the intervention group” adjusted to about 1200 mg/day using a calcium source. […] DEXA and hs-CRP measurement can be performed at baseline and about 12 weeks.

SMILES: O=C([O-])[O-].[Ca+2] [calcium carbonate]
- fat loss from trunkal region: about 50%
